Results on 14 compounds are retold here after patent US12590099B2, “Inhibitors of histone deacetylase useful for the treatment or prevention of HIV infection” (Merck Sharp & Dohme LLC, priority 2018, dated 2026).

Holding throughout (format): biochemical
Assay [1] deals with T1, Recombinant human HDAC1 (Homo sapiens, UniProt Q13547).
T1 construct: FLAG (C); made in house
The experiment in a line: Human HDAC enzyme inhibitor Fluor-de-Lys assay, HDAC1. As to the method: (§1) Human HDAC Enzyme Inhibitor Fluor-De-Lys Assay
(§2) Recombinant human HDAC8 (BML-SE145-0100) and HDAC10 (BML-SE559-0050) enzymes, HDAC substrates BML-KI104 and BML-KI178, and HDAC developer solutions BML-KI105 and BML-KI176 were purchased from Enzo Life Sciences. […] HDAC inhibitor suberoylanilide hydroxamic acid (SAHA) was obtained from Indofine and trichostatin A (TSA) was obtained from Sigma-Aldrich.
(§3) Recombinant human HDAC1, HDAC2, and HDAC3/SMRT heterodimer were prepared by Merck Research Laboratories. […] The eluted protein was then passed over an anti-HDAC1 immunoaffinity column to remove any complexes containing HDAC1. […]
(§4) The histone deacetylase activities of HDAC1, HDAC2, HDAC3, HDAC6, and HDAC8 were measured in modified FLUOR DE LYS assays in 384-well format. In this assay, HDAC enzymes are initially incubated with an ε-acetyl (or -trifluoroacetyl)-L-lysine-containing substrate with a C-terminal amide having aminomethylcoumarin as the amine component. HDACs cleave the ε-acetyl group, rendering the resulting product susceptible to AMC cleavage by trypsin. The released AMC is then detected by its fluorescence.
(§5) The HDAC3/SMRT assay employed buffer B, consisting of 20 mM HEPES, pH 8.0, 1 mM MgCl2, 50 mM NaCl, 2.7 mM KCl, 0.05% BSA, 0.005% Tween 20, and 10 μM IP4. […] The HDAC8 assay employed buffer D, consisting of 20 mM HEPES, pH 8.0, 1 mM MgCl2, 100 mM NaCl, 20 mM KCl, 0.10% n-octyl-β-D-glucoside (Anatrace) and 0.05% BSA. All steps were performed at room temperature (23° C.). The assay was performed by pre-incubating serial dilutions of test compounds with the target HDAC prior to initiation with substrate. Each compound was titrated in a 10-point dose response, using a 1:3 fold dilution scheme, with 0.15 ul of solution added by ECH0555 to the plate, followed by the addition of 20 μl of the appropriate HDAC isoform diluted in appropriate assay buffer. […] Final conditions used for each assay were: 1. HDAC 1, 0.3 nM total enzyme, 20 μM substrate BML-KI104; 2. […] HDAC 3/SMRT, 0.3 nM total enzyme, 20 μM substrate BML-KI104; 4. […] The reactions were stopped and developed by addition of 30 ul of HDAC developer solution containing a saturating level of HDAC inhibitor as follows: 1.

Assay [2] concerns the target T2, Recombinant human HDAC2 (Homo sapiens, UniProt Q92769).
T2 construct: Full length human HDAC2-FLAG was expressed in baculovirus infected Sf9 cells; FLAG (C); made in house; host or cells: Sf9 (baculovirus)
In words: Human HDAC enzyme inhibitor Fluor-de-Lys assay, HDAC2. As to the method: as §1, §2, §3, §4, §5

Assay [3] addresses T3, Recombinant human HDAC3/SMRT heterodimer (Homo sapiens, UniProt O15379).
T3 construct: FLAG (C); made in house
The experiment in a line: Human HDAC enzyme inhibitor Fluor-de-Lys assay, HDAC3/SMRT.

Assay [4] concerns the target T4, HDAC6 (Homo sapiens, UniProt Q9UBN7).
T4 sequence (Q9UBN7 1-1215): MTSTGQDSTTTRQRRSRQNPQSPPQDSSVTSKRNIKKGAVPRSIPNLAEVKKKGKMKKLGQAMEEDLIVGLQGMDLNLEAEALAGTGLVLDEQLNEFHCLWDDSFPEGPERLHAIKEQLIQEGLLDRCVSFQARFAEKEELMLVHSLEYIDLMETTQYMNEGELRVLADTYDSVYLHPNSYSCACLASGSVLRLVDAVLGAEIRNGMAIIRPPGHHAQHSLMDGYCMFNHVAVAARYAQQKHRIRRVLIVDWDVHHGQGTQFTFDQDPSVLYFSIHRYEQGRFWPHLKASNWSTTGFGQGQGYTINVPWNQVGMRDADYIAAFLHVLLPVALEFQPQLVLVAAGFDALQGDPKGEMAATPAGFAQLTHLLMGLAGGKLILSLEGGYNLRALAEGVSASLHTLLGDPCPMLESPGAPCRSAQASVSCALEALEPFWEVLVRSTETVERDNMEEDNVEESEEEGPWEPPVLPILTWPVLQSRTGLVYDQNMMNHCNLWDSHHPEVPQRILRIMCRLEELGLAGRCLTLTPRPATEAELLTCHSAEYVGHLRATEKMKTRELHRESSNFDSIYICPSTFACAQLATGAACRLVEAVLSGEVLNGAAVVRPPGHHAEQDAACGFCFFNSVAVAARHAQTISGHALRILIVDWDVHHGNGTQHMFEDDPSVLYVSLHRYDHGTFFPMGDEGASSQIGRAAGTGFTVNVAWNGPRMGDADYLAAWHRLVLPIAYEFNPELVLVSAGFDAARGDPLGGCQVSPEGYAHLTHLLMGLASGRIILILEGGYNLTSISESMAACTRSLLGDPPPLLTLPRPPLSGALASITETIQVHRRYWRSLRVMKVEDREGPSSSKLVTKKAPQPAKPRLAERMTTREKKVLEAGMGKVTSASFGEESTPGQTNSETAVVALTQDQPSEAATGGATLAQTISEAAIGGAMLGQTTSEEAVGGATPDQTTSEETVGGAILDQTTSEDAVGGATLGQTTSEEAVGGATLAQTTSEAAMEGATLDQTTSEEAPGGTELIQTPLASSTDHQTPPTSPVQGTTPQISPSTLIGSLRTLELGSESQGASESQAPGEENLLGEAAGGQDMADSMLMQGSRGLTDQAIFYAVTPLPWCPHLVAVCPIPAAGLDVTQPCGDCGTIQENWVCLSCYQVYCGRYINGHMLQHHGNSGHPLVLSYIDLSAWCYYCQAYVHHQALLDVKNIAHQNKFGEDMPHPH
The experiment in a line: Human HDAC enzyme inhibitor Fluor-de-Lys assay, HDAC6.

Assay [5] has as its target T5, Recombinant human HDAC8 (Homo sapiens, UniProt Q9BY41).
T5 construct: purchased Enzo Life Sciences BML-SE145-0100
T5 sequence (Q9BY41 1-377): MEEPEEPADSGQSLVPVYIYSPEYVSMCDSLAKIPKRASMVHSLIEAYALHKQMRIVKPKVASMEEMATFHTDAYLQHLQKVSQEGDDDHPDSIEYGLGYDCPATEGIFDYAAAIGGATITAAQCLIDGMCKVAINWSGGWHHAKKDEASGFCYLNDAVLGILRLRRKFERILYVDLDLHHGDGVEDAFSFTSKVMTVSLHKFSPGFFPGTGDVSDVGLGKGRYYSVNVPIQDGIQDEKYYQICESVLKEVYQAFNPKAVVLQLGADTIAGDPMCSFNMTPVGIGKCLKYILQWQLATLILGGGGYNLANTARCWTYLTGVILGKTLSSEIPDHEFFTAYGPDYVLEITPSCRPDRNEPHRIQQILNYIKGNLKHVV
The experiment in a line: Human HDAC enzyme inhibitor Fluor-de-Lys assay, HDAC8.

The structures appear in SMILES notation.

T3 sequence (O15379 whole entry): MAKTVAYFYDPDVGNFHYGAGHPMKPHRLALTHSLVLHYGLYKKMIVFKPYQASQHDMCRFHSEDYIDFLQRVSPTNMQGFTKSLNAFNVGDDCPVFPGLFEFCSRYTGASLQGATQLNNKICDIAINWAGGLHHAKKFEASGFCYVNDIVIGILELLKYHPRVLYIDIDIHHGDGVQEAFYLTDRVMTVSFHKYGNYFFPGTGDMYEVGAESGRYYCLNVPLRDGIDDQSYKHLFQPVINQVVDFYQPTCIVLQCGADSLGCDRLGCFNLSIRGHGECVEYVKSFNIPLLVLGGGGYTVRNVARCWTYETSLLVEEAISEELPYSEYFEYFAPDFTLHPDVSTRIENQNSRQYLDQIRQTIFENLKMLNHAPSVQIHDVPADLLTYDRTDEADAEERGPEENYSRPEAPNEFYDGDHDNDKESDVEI
T3 sequence (Q9Y618 1-899 partner limits assumed): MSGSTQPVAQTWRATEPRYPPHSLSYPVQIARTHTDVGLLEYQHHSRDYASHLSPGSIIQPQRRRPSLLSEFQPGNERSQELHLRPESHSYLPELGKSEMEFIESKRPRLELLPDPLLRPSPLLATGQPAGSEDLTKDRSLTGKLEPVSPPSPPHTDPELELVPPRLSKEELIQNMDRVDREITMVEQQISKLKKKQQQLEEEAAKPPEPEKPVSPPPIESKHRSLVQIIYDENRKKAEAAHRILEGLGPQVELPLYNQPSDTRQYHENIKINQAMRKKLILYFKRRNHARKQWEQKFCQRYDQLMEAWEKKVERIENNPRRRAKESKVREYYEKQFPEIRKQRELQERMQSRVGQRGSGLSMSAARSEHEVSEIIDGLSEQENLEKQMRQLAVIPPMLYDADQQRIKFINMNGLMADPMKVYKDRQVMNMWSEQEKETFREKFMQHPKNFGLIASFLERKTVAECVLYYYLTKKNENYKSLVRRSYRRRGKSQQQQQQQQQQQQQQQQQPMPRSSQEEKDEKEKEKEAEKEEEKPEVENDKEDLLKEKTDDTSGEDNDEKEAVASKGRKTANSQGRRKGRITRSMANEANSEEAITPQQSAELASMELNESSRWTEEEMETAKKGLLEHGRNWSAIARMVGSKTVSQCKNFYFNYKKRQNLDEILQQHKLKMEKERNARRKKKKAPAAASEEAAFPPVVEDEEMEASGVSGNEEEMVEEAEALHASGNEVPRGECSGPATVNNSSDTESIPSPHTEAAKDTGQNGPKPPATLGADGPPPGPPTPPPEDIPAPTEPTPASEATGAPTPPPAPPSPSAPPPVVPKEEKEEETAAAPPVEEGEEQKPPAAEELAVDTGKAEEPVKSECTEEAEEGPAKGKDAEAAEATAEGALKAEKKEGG
T1 sequence (Q13547 whole entry): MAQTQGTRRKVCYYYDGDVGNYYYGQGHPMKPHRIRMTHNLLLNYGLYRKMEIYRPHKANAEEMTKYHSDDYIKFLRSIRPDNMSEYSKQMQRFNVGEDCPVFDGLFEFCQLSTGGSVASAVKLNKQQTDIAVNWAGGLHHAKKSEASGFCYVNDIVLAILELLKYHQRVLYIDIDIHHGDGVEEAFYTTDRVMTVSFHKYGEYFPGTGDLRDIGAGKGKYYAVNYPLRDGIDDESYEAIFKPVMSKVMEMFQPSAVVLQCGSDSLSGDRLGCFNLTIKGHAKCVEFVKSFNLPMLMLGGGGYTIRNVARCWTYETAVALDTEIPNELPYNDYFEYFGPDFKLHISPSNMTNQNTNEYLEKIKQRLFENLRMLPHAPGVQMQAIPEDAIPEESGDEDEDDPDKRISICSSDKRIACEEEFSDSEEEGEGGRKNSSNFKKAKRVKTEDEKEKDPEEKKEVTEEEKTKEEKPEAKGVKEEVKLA
T2 sequence (Q92769 whole entry): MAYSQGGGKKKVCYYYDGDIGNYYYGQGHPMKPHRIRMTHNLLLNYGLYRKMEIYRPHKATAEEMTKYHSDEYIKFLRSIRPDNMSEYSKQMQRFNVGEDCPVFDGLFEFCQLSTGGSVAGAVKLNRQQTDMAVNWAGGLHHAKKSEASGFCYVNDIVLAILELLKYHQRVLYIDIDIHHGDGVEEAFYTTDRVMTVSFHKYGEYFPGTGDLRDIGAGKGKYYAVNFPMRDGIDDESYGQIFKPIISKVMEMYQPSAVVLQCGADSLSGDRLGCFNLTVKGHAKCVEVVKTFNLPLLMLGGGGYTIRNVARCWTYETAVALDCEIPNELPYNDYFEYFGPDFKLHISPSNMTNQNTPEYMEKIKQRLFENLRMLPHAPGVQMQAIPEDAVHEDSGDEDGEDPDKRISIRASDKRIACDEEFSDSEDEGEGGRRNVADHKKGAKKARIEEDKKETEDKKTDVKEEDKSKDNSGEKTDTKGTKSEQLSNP

For the compound `CCC(=O)CCCCC[C@H](NC(=O)C1CC12CCN(C)C(C)(C)C2)c1ncc(-c2ccc3nc(C)ccc3c2)[nH]1` (single isomer, unassigned) [Compound 130], the IC50 in assay [1] was found to be 5.6 nM; in assay [2] it was 15.3 nM; in assay [3], 2.27 nM; in assay [4] it was 2120 nM; in assay [5], 6000 nM.
In the same order, the values of `CCC(=O)CCCCC[C@H](NC(=O)C1CC12CCN(C)C(C)(C)C2)c1ncc(-c2ccc3nc(C)ccc3c2)[nH]1` (single isomer, unassigned) [Compound 131] are 0.48 nM, 2.5 nM, 0.57 nM, 2280 nM and 2780 nM.
With `CCC(=O)CCCCC[C@H](NC(=O)C1CC12CCN(C)C(C)(C)C2)c1ncc(-c2ccc3nc(C)ccc3c2)[nH]1` (single isomer, unassigned) [Compound 132], the IC50 was 2.33 nM in assay [1]; 6.5 nM in assay [2]; under 1.5 nM in assay [3]; 3680 nM in assay [4]; 8060 nM in assay [5].
`CCC(=O)CCCCC[C@H](NC(=O)C1CC12CCN(C)C(C)(C)C2)c1ncc(-c2ccc3nc(C)ccc3c2)[nH]1` (single isomer, unassigned) [Compound 133]: the IC50 in assay [1] is under 1.5 nM; in assay [2], 2.1 nM; in assay [3], under 1.5 nM; in assay [4], 879 nM; in assay [5], 2060 nM.
With `CCC(=O)CCCCC[C@H](NC(=O)[C@@]1(C)CC12CCN(C(C)C)CC2)c1ncc(-c2ccc3nc(C)ccc3c2)[nH]1` (single isomer, unassigned) [Compound 151, (1S or 1R)-1-methyl-6-(1-methylethyl)-N-{(1S)-1-[5-(2-methylquinolin-6-yl)-1H-imidazol-2-yl]-7-oxononyl}-6-azaspiro[2.5]octane-1-carboxamide], the IC50 in assay [1] is 5.74 nM; in assay [2] it was 21.8 nM; in assay [3], 3.94 nM; in assay [4], 5820 nM; in assay [5], 3180 nM.
Regarding `CCC(=O)CCCCC[C@H](NC(=O)C1(C)CC12CCN(C(C)C)CC2)c1ncc(-c2ccc3nc(C)ccc3c2)[nH]1` (single isomer, unassigned) [Compound 152, (1S or 1R)-1-methyl-6-(1-methylethyl)-N-{(1S)-1-[5-(2-methylquinolin-6-yl)-1H-imidazol-2-yl]-7-oxononyl}-6-azaspiro[2.5]octane-1-carboxamide], the IC50 is 0.94 nM in assay [1]; 4 nM in assay [2]; 0.85 nM in assay [3]; 19200 nM in assay [4]; 5060 nM in assay [5].
In the same order, the values of `CCC(=O)CCCCC[C@H](NC(=O)C1CC12CC1CCC(C2)N1C)c1ncc(-c2ccc3ncccc3c2)[nH]1` (single isomer, unassigned) [Compound 166] are 0.37 nM, 2.2 nM, 0.32 nM, 229 nM and 5660 nM.
For `CCC(=O)CCCCC[C@H](NC(=O)C1CN(C)C1)c1[nH]c(-c2ccc(F)cc2)nc1Br` [Compound 65, N-{(1S)-1-[4-bromo-2-(4-fluorophenyl)-1H-imidazol-5-yl]-7-oxononyl}-1-methylazetidine-3-carboxamide] the same measures were 44.9 nM, 306 nM, 20.6 nM, over 45000 nM and 40000 nM.
Take `CCC(=O)CCCCC[C@H](NC(=O)[C@H]1CC12CCN(C)CC2)c1ncc(-c2ccc3nc(N(C)C)ccc3c2)[nH]1` [Compound 66, (1S)—N-[(1S)-1-{5-[2-(dimethylamino)quinolin-6-yl]-1H-imidazol-2-yl}-7-oxononyl]-6-methyl-6-azaspiro[2.5]octane-1-carboxamide]: the half-inhibitory concentration (IC50) in assay [1] was 147 nM; in assay [2], over 900 nM; in assay [3], 167 nM; in assay [4], over 450 nM; in assay [5], over 1500 nM.
Turning to `CCC(=O)CCCCC[C@H](NC(=O)[C@H]1CC12CCN(C)CC2)c1ncc(-c2cnc3cccnc3c2)[nH]1` [Compound 67], the IC50 in assay [1] worked out at 19.6 nM; in assay [2], 101 nM; in assay [4] it was 1280 nM; in assay [5], 2590 nM.
In the same order, the values of `CCC(=O)CCCCC[C@H](NC(=O)[C@H]1CC12CCN(C)CC2)c1ncc(-c2cc3ccccc3nc2OC)o1` [Compound 77] are 1.53 nM, 4.8 nM, 198 nM and 21700 nM.
In the same order, the values of `CCC(=O)CCCCC[C@H](NC(=O)C1=NOC2(CCN(C)CC2)C1)c1ncc(-c2cc3ccccc3nc2OC)[nH]1` [Compound 105] are 0.92 nM, 5.3 nM, 1510 nM and 2880 nM.
Turning to `CCC(=O)CCCCC[C@H](NC(=O)[C@H]1CC12CCN(C)CC2)c1ncc(-c2cc3ccccc3nc2OC)o1` [Compound 125], the IC50 in assay [1] is under 1.5 nM; in assay [2], 5.6 nM; in assay [4] it was 254 nM; in assay [5], 23400 nM.
In the same order, the values of `CCC(=O)CCCCC[C@H](NC(=O)[C@H]1CC12CCN(CC1CC1)CC2)c1ncc(-c2cc3ccc(=O)n(C)c3cc2OC)o1` [Compound 199] are 0.35 nM, 1.3 nM, 216 nM and 300 nM.

The term IC50 denotes the concentration that inhibits the measured activity by half.
